Experimental data from US11554171B2, “Compounds and methods for the targeted degradation of bromodomain-containing proteins” (Arvinas Operations, Inc., priority 2015, dated 2023).

Tested on: c-myc in 22RV-1 cells
Assay: Human c-myc ELISA assay
Type: cell-based
Conditions: Homo sapiens; for Emax: 22Rv1, 18 h, read-out: Degradation of BRD4: Maximum inhibition (%) c-Myc ELISA in 22RV1 cells; for DC50: 22Rv1, read-out: Degradation of BRD4: DC50 (uM) c-Myc ELISA in 22RV1 cells
In short: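 c-myc levels measured by ELISA in RIPA lysates of 22RV-1 cells, calibrated with a 333-0 pg/ml standard curve. Lysates came from cells exposed for 18 h to an 8-point, 1:3 dose series starting at 300 nM or 1 μM final in 0.1% DMSO. Suppression potency given as DC50.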

SMILES | DC50 [µM] | Emax [%]
Cc1ncsc1-c1ccc([C@H](C)NC(=O)[C@@H]2C[C@@H](O)CN2C(=O)[C@@H](C(C)C)n2cc(-c3cc(O[C@H]4C[C@@H](NC(=O)C[C@@H]5N=C(c6ccc(Cl)cc6)c6c(sc(C)c6C)-n6c(C)nnc65)C4)ccn3)cn2)cc1 [Example 303] | > 1 | 9.8
Cc1ncsc1-c1ccc(CNC(=O)[C@@H]2C[C@@H](O)CN2C(=O)[C@@H](NC(=O)COCCOCCOCCCOCCOCCNC(=O)C[C@@H]2N=C(c3ccc(Cl)cc3)c3c(sc(C)c3C)-n3c(C)nnc32)C(C)(C)C)cc1 [Example 8] | 0.1 to 1 | 95.9
Cc1ncsc1-c1ccc([C@H](C)NC(=O)[C@@H]2C[C@@H](O)CN2C(=O)[C@@H](C(C)C)n2cc(-c3ccnc(N4CC[C@H](NC(=O)C[C@@H]5N=C(c6ccc(Cl)cc6)c6c(sc(C)c6C)-n6c(C)nnc65)C4)c3)cn2)cc1 [Example 263] | > 1 | 23.5
Cc1ncsc1-c1ccc([C@H](C)NC(=O)[C@@H]2C[C@@H](O)CN2C(=O)[C@@H](NC(=O)COc2ccnc(O[C@H]3C[C@H](NC(=O)C[C@@H]4N=C(c5ccc(Cl)cc5)c5c(sc(C)c5C)-n5c(C)nnc54)C3)c2)C(C)(C)C)cc1 [Example 227] | < 0.01 | 100
Cc1ncsc1-c1ccc([C@H](C)NC(=O)[C@@H]2C[C@@H](O)CN2C(=O)[C@@H](NC(=O)COc2ccc(O[C@H]3C[C@@H](NC(=O)C[C@@H]4N=C(c5ccc(Cl)cc5)c5c(sc(C)c5C)-n5c(C)nnc54)C3)nc2)C(C)(C)C)cc1 [Example 119, (2S,4R)-1-[(2S)-3,3-dimethyl-2-[2-({6-[(1,3-cis)-3-{2-[(9S)-7-(4-chlorophenyl)-4,5,13-trimethyl-3-thia-1,8,11,12-tetraazatricyclo[8.3.0.0^2,^6]trideca-2(6),4,7,10,12-pentaen-9-yl]acetamido}cyclobutoxy]pyridin-3-yl}oxy)acetamido]butanoyl]-4-hydroxy-N-[(1S)-1-[4-(4-methyl-1,3-thiazol-5-yl)phenyl]ethyl]pyrrolidine-2-carboxamide] | < 0.01 | 96
Cc1ncsc1-c1ccc(CNC(=O)[C@@H]2C[C@@H](O)CN2C(=O)[C@@H](NC(=O)COCCOCCCOc2ccc([C@@H](C)NC(=O)C[C@@H]3N=C(c4ccc(Cl)cc4)c4c(sc(C)c4C)-n4c(C)nnc43)cc2)C(C)(C)C)cc1 [Example 29] | 0.01 to 0.1 | 96.8
Cc1ncsc1-c1ccc(CNC(=O)[C@@H]2C[C@@H](O)CN2C(=O)[C@H](C(C)C)n2cc(-c3cccc(O[C@H](C)CNC(=O)C[C@@H]4N=C(c5ccc(Cl)cc5)c5c(sc(C)c5C)-n5c(C)nnc54)c3)cn2)cc1 [Example 232] | 0.01 to 0.1 | 83
Cc1ncsc1-c1ccc([C@H](C)NC(=O)[C@@H]2C[C@@H](O)CN2C(=O)[C@@H](C(C)C)n2cc(-c3ccnc(O[C@H]4C[C@@H](NC(=O)C[C@@H]5N=C(c6ccc(Cl)cc6)c6c(sc(C)c6C)-n6c(C)nnc65)C4)c3)cn2)cc1 [Example 218, (2S,4R)-4-hydroxy-N-[(1S)-1-[4-(4-methyl-1,3-thiazol-5-yl)phenyl]ethyl]-1-[(2R)-3-methyl-2-(4-{2-1[(1,3-cis)-3-{2-[(9S)-7-(4-chlorophenyl)-4,5,13-trimethyl-3-thia-1,8,11,12-tetraazatricyclo[8.3.0.0^2,^6]trideca-2(6),4,7,10,12-pentaen-9-yl]acetamido}cyclobutoxy]pyridin-4-yl}-1H-pyrazol-1-yl)butanoyl]pyrrolidine-2-carboxamide] | > 1 | 48
Cc1ncsc1-c1ccc(CNC(=O)[C@@H]2C[C@@H](O)CN2C(=O)[C@@H](NC(=O)COc2ccccc2O[C@H]2C[C@@H](NC(=O)C[C@@H]3N=C(c4ccc(Cl)cc4)c4c(sc(C)c4C)-n4c(C)nnc43)C2)C(C)(C)C)cc1 [Example 190] | 0.01 to 0.1 | 91
Cc1ncsc1-c1ccc(CNC(=O)[C@@H]2C[C@@H](O)CN2C(=O)[C@@H](NC(=O)COCCCOCCCOc2ccc([C@H](C)NC(=O)C[C@@H]3N=C(c4ccc(Cl)cc4)c4c(sc(C)c4C)-n4c(C)nnc43)cc2)C(C)(C)C)cc1 [Example 25, (2S,4R)-1-[(2S)-2-{2-[3-(3-{4-[(1S)-1-{2-[(9S)-7-(4-chlorophenyl)-4,5,13-trimethyl-3-thia-1,8,11,12-tetraazatricyclo[8.3.0.0^2,^6]trideca-2(6),4,7,10,12-pentaen-9-yl]acetamido}ethyl]phenoxy}propoxy)propoxy]acetamido}-3,3-dimethylbutanoyl]-4-hydroxy-N-{[4-(4-methyl-1,3-thiazol-5-yl)phenyl]methyl}pyrrolidine-2-carboxamide] | 0.01 to 0.1 | 100
Cc1ncsc1-c1ccc([C@H](C)NC(=O)[C@@H]2C[C@@H](O)CN2C(=O)[C@H](C(C)C)n2cc(-c3ccc(O[C@H]4C[C@H](NC(=O)C[C@@H]5N=C(c6ccc(Cl)cc6)c6c(sc(C)c6C)-n6c(C)nnc65)C4)nc3)cn2)cc1 [Example 269] | < 0.01 | 96.4
Cc1ncsc1-c1ccc([C@H](C)NC(=O)[C@@H]2C[C@@H](O)CN2C(=O)[C@@H](NC(=O)Cc2ccc(-c3cn([C@H](C)CNC(=O)C[C@@H]4N=C(c5ccc(Cl)cc5)c5c(sc(C)c5C)-n5c(C)nnc54)cn3)cc2)C(C)(C)C)cc1 [Example 340] | 0.01 to 0.1 | 92.2

More lines, main results first:

DC50 [µM] | SMILES | Emax [%]
< 0.01 | Cc1ncsc1-c1ccc([C@H](C)NC(=O)[C@@H]2C[C@@H](O)CN2C(=O)[C@@H](NC(=O)COCCCOCCOc2cccc(NC(=O)C[C@@H]3N=C(c4ccc(Cl)cc4)c4c(sc(C)c4C)-n4c(C)nnc43)c2)C(C)(C)C)cc1 [Example 129] | 96
< 0.01 | Cc1ncsc1-c1ccc([C@H](C)NC(=O)[C@@H]2C[C@@H](O)CN2C(=O)[C@@H](NC(=O)CCc2cc(F)cc(O[C@@H](C)CNC(=O)C[C@@H]3N=C(c4ccc(Cl)cc4)c4c(sc(C)c4C)-n4c(C)nnc43)c2)C(C)(C)C)cc1 [Example 200] | 96.5
< 0.01 | Cc1ncsc1-c1ccc([C@H](C)NC(=O)[C@@H]2C[C@@H](O)CN2C(=O)[C@H](C(C)C)n2cc(-c3cc(F)cc(O[C@H]4C[C@@H](NC(=O)C[C@@H]5N=C(c6ccc(Cl)cc6)c6c(sc(C)c6C)-n6c(C)nnc65)C4)c3)cn2)cc1 [Example 252] | 97.5
< 0.01 | Cc1ncsc1-c1ccc([C@H](C)NC(=O)[C@@H]2C[C@@H](O)CN2C(=O)[C@@H](NC(=O)/C=C/c2ccc(F)c(O[C@@H](C)CNC(=O)C[C@@H]3N=C(c4ccc(Cl)cc4)c4c(sc(C)c4C)-n4c(C)nnc43)c2)C(C)(C)C)cc1 [Example 160] | 94.5
< 0.01 | Cc1ncsc1-c1ccc([C@H](C)NC(=O)[C@@H]2C[C@@H](O)CN2C(=O)[C@@H](NC(=O)COc2ccc(N3CC(NC(=O)C[C@@H]4N=C(c5ccc(Cl)cc5)c5c(sc(C)c5C)-n5c(C)nnc54)C3)nc2)C(C)(C)C)cc1 [Example 251, (2S,4R)-1-[(2S)-2-(2-{[6-(3-{2-[(9S)-7-(4-chlorophenyl)-4,5,13-trimethyl-3-thia-1,8,11,12-tetraazatricyclo[8.3.0.0^2,^6]trideca-2(6),4,7,10,12-pentaen-9-yl]acetamido}azetidin-1-yl)pyridin-3-yl]oxy}acetamido)-3,3-dimethylbutanoyl]-4-hydroxy-N-[(1S)-1-[4-(4-methyl-1,3-thiazol-5-yl)phenyl]ethyl]pyrrolidine-2-carboxamide] | 92.3
